Data: ChEMBL document CHEMBL6083277, “Discovery of SZJK-0421: A Novel Potent, Low Toxicity, Selective Second Generation of CRM1 Inhibitor for the Treatment of Both Hematological and Solid Tumors” (J Med Chem, 2024)
Active and inactive are the calls of the source. No cut-off for these calls is given here.

Experiments:
[1] = AUC in male Sprague-Dawley rat plasma at 10 mg/kg, IG measured at 6 hrs by LC-MS/MS analysis; assay type: ADME, organism-based; settings: po
[2] = Oral bioavailability in male Sprague-Dawley rat at 15 mg/kg measured upto 30 hrs by LC-MS/MS analysis; assay type: ADME, organism-based; settings: in vivo
HCT-116 [3] = assay: Antitumor activity against human HCT-116 cells xenografted in NOD-SCID mouse assessed as tumor growth inhibition at 60 mg/kg, po measured every 2 days for 21 days; assay type: functional, organism-based; settings: time 21.0 day
MM1.S [4] = assay: Antitumor activity against human MM1.S cells xenografted in NOD-SCID mouse assessed as tumor growth inhibition at 60 mg/kg, po qd measured upto 21 days; assay type: functional; settings: 504 h, time <= 21 day, read-out: TGI
[5] = Antiproliferative activity against human ARP-1 cells assessed as inhibition of cell growth incubated for 72 hrs by celltiter-glo assay; assay type: functional, cell-based; settings: ARP-1, 72 h
[6] = AUC in male Sprague-Dawley rat brain at 10 mg/kg, IG measured at 6 hrs by LC-MS/MS analysis; assay type: ADME, organism-based; settings: po
[7] = AUC (0 to infinity) in male Sprague-Dawley rat at 15 mg/kg, po measured upto 30 hrs by LC-MS/MS analysis; assay type: ADME, organism-based; settings: in vivo
[8] = Toxicity in NOD-SCID mouse implanted with human ARH-77 cells assessed as change in body weight at 15 to 60 mg/kg, po measured every 2 days for 21 days; assay type: organism-based; settings: in vivo, 504 h, dose 15-60 mg/kg, time 21 day
[9] = Half life in male Sprague-Dawley rat at 2 mg/kg, iv measured upto 30 hrs by LC-MS/MS analysis; assay type: ADME, organism-based; settings: in vivo
[10] = Metabolic stability in dog liver microsomes assessed as intrinsic clearance measured upto 60 mins in presence of NADPH by LC/MS-MS analysis; assay type: ADME, Canis lupus familiaris, Microsome; settings: read-out: CLH
[11] = AUC (0 to t) in male Sprague-Dawley rat at 15 mg/kg, po measured upto 30 hrs by LC-MS/MS analysis; assay type: ADME, organism-based; settings: in vivo
[12] = AUC (0 to t) in male Sprague-Dawley rat at 30 mg/kg, po measured upto 30 hrs by LC-MS/MS analysis; assay type: ADME, organism-based; settings: in vivo
[13] = Toxicity in NOD-SCID mouse assessed as hyperplasia of crypt in intestine at 15 to 60 mg/kg, po measured every 2 days for 21 days by H and E staining based analysis; assay type: organism-based; settings: in vivo, 504 h, dose 15-60 mg/kg, time 21 day
[14] = Cmax in male Sprague-Dawley rat plasma at 10 mg/kg, IG measured at 6 hrs by LC-MS/MS analysis; assay type: ADME, organism-based; settings: po
MM1.S [15] = assay: Antitumor activity against human MM1.S cells xenografted in NOD-SCID mouse assessed as tumor growth inhibition at 15 mg/kg, po qd measured upto 21 days; assay type: functional; settings: 504 h, time <= 21 day, read-out: TGI
[16] = Metabolic stability in mouse liver microsomes assessed as half life measured upto 60 mins in presence of NADPH by LC/MS-MS analysis; assay type: ADME, Microsome
[17] = Metabolic stability in mouse liver microsomes assessed as intrinsic clearance measured upto 60 mins in presence of NADPH by LC/MS-MS analysis; assay type: ADME, Microsome; settings: read-out: CLH
[18] = target: Exportin-1 (Homo sapiens) (UniProt O14980); assay: (§1) Competitive inhibition of human recombinant CRM1 at 2 uM incubated for 2 hrs in presence of 3-(1-((E)-3-(methoxyamino)-3-oxo-2-(pyrimidin-5-yl)prop-1-en-1-yl)-1H-1,2,4-triazol-3-yl)-5-(trifluoromethyl)phenyl 3-(5-((3aS,4S,6aR)-2-oxohexahydro-1H-thieno[3,4-d]imidazol-4-yl)pentanamido)propanoate by pull down based Western blot analysis
[19] = AUC (0 to infinity) in male Sprague-Dawley rat at 2 mg/kg, iv measured upto 30 hrs by LC-MS/MS analysis; assay type: ADME, organism-based; settings: in vivo
[20] = target: Exportin-1 (Homo sapiens) (UniProt O14980); assay: Inhibition of CRM1 in human MM1.S cells assessed as accumulation of IkappaB protein level at 0.5 to 1 uM incubated for 24 hrs by Western blot analysis; assay type: cell-based; settings: dose 0.5-1 µM
HCT-116 [21] = assay: Antiproliferative activity against human HCT-116 cells assessed as inhibition of cell growth incubated for 72 hrs by celltiter-glo assay; assay type: functional, cell-based; settings: HCT-116, 72 h
RPMI-8226 = assay: Antiproliferative activity against human RPMI-8226 cells assessed as inhibition of cell growth incubated for 72 hrs by celltiter-glo assay; assay type: functional, cell-based; settings: RPMI-8226, 72 h
[22] = target: Exportin-1 (Homo sapiens) (UniProt O14980); assay: Reversible binding affinity to CRM1 in human U2OS cells incubated for 4 hrs by DAPI staining based fluorescence microscopic analysis; assay type: cell-based
[23] = target: Exportin-1 (Homo sapiens) (UniProt O14980); assay: as §1, with “Reversible competitive” for “Competitive”
[24] = Half life in male Sprague-Dawley rat at 15 mg/kg, po measured upto 30 hrs by LC-MS/MS analysis; assay type: ADME, organism-based; settings: in vivo
[25] = target: Ran-specific GTPase-activating protein (Homo sapiens, UniProt P43487); assay: Inhibition of RANBP1 nuclear export in human U2OS cells assessed as increase in fluorescence intensity at 100 uM measured for 15 mins by DAPI staining based fluorescence microscopic analysis; assay type: cell-based
[26] = Metabolic stability in human liver microsomes assessed as half life measured upto 60 mins in presence of NADPH by LC/MS-MS analysis; assay type: ADME, Microsome
KMS-11 = assay: Antiproliferative activity against human KMS-11 cells assessed as inhibition of cell growth incubated for 72 hrs by celltiter-glo assay; assay type: functional, cell-based; settings: KMS-11, 72 h
MM1.S [27] = assay: Induction of apoptosis in human MM1.S cells assessed as increase in cleaved caspase level at 0.5 to 1 uM incubated for 48 hrs by Western blot analysis; assay type: functional, cell-based; settings: dose 0.5-1 µM
ARH-77 = assay: Antiproliferative activity against human ARH-77 cells assessed as inhibition of cell growth incubated for 72 hrs by celltiter-glo assay; assay type: functional, cell-based; settings: ARH-77, 72 h
SW872 = assay: Antiproliferative activity against human SW872 cells assessed as inhibition of cell growth incubated for 72 hrs by celltiter-glo assay; assay type: functional, cell-based; settings: SW872, 72 h
[28] = Toxicity in NOD-SCID mouse assessed as loss of crypt depth in intestine at 15 to 60 mg/kg, po measured every 2 days for 21 days by H and E staining based analysis; assay type: organism-based; settings: in vivo, 504 h, dose 15-60 mg/kg, time 21 day
[29] = Toxicity in BALB/c mouse assessed as shortened intestine at 90 to 120 mg/kg, po administered once daily for 21 days; assay type: organism-based; settings: in vivo, 504 h, dose 90-120 mg/kg, time 21 day
[30] = Metabolic stability in monkey liver microsomes assessed as intrinsic clearance measured upto 60 mins in presence of NADPH by LC/MS-MS analysis; assay type: ADME, Macaca mulatta, Microsome; settings: rhesus monkey, read-out: CLH
MOLM-13 = assay: Antiproliferative activity against human MOLM-13 cells assessed as inhibition of cell growth incubated for 72 hrs by celltiter-glo assay; assay type: functional, cell-based; settings: MOLM-13, 72 h
[31] = Toxicity in NOD-SCID mouse assessed as appearance of spindle shape in tumor at 60 mg/kg, po measured every 2 days for 21 days by H and E staining based analysis; assay type: organism-based; settings: in vivo, 504 h, time 21 day
[32] = Half life in male Sprague-Dawley rat at 10 mg/kg, po measured upto 30 hrs by LC-MS/MS analysis; assay type: ADME, organism-based; settings: in vivo

Chain of Exportin-1 (Homo sapiens) (O14980 whole entry): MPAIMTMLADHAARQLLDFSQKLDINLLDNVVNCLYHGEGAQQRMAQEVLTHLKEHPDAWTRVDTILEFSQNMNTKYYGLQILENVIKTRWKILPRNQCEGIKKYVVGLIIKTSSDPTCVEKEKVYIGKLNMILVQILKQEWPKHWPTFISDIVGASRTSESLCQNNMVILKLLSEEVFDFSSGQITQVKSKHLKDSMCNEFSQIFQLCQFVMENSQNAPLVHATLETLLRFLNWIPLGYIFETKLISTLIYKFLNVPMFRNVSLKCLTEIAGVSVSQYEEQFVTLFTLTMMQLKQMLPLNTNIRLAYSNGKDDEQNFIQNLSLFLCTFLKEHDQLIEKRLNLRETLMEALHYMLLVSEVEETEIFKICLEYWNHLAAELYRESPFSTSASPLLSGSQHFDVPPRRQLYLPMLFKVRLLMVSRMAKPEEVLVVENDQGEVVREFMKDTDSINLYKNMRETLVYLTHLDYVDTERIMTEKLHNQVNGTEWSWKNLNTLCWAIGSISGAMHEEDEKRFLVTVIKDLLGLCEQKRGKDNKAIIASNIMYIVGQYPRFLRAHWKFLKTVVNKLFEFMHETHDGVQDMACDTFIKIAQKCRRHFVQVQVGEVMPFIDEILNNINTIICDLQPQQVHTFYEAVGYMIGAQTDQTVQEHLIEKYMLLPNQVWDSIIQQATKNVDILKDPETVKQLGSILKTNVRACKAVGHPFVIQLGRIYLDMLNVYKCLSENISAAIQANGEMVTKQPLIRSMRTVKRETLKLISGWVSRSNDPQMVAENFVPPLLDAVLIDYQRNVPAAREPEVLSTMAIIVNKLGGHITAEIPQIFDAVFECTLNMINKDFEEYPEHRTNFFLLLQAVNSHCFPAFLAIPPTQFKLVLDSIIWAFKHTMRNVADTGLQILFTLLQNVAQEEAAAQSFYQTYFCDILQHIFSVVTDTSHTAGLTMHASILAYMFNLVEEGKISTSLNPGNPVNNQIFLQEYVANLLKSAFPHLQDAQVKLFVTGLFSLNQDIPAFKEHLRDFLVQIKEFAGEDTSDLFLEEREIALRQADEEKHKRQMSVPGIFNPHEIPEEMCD
Chain of Ran-specific GTPase-activating protein (P43487 whole entry): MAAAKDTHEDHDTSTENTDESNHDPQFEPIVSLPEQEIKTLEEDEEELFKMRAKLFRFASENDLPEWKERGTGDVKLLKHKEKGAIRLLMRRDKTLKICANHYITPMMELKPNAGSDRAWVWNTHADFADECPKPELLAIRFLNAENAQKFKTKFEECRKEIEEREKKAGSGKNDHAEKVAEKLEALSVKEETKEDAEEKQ

In the case of `CONC(=O)/C(=C/n1cnc(-c2cc(C(F)(F)F)cc(C(F)(F)F)c2)n1)c1cncnc1`, the AUC at 6 h [1] is reported as 2480 ng·h/mL, the bioavailability [2] is reported as 52.1% and the TGI (HCT-116 [3]) is reported as “Active”. The inhibition in vivo at 60 mg/kg (MM1.S [4]) was 87%, the IC50 [5] was 652 nM and the AUC at 6 h [6] was 378 ng·h/mL. The AUC(0-inf) [7] was 5830 ng·h/mL, the Activity [8] was “Toxic” and the half-life [9] was 4.2 h. It also gave a microsomal CLint [10] of 2.6 µL/min/mg, an AUC(0-t) at 30 h [11] of 5080 ng·h/mL and an AUC(0-t) at 30 h [12] of 9000 ng·h/mL. For the same compound, the Activity [13] was “Non-toxic”, the Cmax [14] was 18.9 ng/mL and the inhibition in vivo at 15 mg/kg (MM1.S [15]) was 80.5%. The half-life [16] was over 2 h, the microsomal CLint [17] was 12.6 µL/min/mg and the inhibition [18] was “Active”. The AUC(0-inf) [19] was 1490 ng·h/mL, the Activity [20] was “Active” and the IC50 (HCT-116 [21]) was 435 nM. The IC50 (RPMI-8226) was 304 nM, the Activity [22] was “Active” and the inhibition [23] was “Active”. The half-life [24] was 4 h, the inhibition [25] was “Active” and the half-life [26] was over 2 h. The IC50 (KMS-11) was 739 nM, the Activity (MM1.S [27]) was “Active” and the IC50 (ARH-77) was 304 nM. The IC50 (SW872) was 753 nM, the Activity [28] was “Non-toxic” and the Activity [29] was “Non-toxic”. The microsomal CLint [30] was 8.6 µL/min/mg, the IC50 (MOLM-13) was 478 nM and the Activity [31] was “Non-toxic”. The half-life [32] was 5.6 h.
